From PubChem BioAssay (NCI)
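Where inhibition never reached the appropriate level, the endpoint shown equals the highest concentration tested. Otherwise, values were interpolated linearly from a five-concentration, 48-hour dose response in 96-well plates. TGI: total growth inhibition.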

Tests used:
Test in all cases: inhibition of tumour cell growth, NCI panel, 48 h
M14 melanoma = test system: M14 melanoma
HCC-2998 colon = test system: HCC-2998 colon
SNB-19 CNS = test system: SNB-19 CNS
MALME-3M melanoma = test system: MALME-3M melanoma
SK-MEL-2 melanoma = test system: SK-MEL-2 melanoma
SW-620 colon = test system: SW-620 colon
PC-3 prostate = test system: PC-3 prostate
HS 578T breast = test system: HS 578T breast
MDA-MB-435 = test system: MDA-MB-435
A549 NSCLC = test system: A549 NSCLC
SF-295 CNS = test system: SF-295 CNS
SN12C renal = test system: SN12C renal
OVCAR-3 ovarian = test system: OVCAR-3 ovarian
RXF 393 renal = test system: RXF 393 renal
OVCAR-4 ovarian = test system: OVCAR-4 ovarian
BT-549 breast = test system: BT-549 breast
NCI-H460 lung = test system: NCI-H460 lung
NCI-H23 lung = test system: NCI-H23 lung
ACHN renal = test system: ACHN renal
U251 CNS = test system: U251 CNS
HL-60(TB) leukemia = test system: HL-60(TB) leukemia
RPMI-8226 leukemia = test system: RPMI-8226 leukemia
LOX IMVI melanoma = test system: LOX IMVI melanoma
K-562 leukemia = test system: K-562 leukemia
786-0 renal = test system: 786-0 renal
CCRF-CEM leukemia = test system: CCRF-CEM leukemia
SF-539 CNS = test system: SF-539 CNS
MDA-MB-231 breast = test system: MDA-MB-231 breast
UACC-62 melanoma = test system: UACC-62 melanoma
DU-145 prostate = test system: DU-145 prostate
HCT-15 colon = test system: HCT-15 colon
MOLT-4 leukemia = test system: MOLT-4 leukemia
HOP-62 NSCLC = test system: HOP-62 NSCLC
SK-MEL-28 melanoma = test system: SK-MEL-28 melanoma
SR leukemia = test system: SR leukemia
NCI-H226 lung = test system: NCI-H226 lung
OVCAR-5 ovarian = test system: OVCAR-5 ovarian
KM12 colon = test system: KM12 colon
NCI-H522 lung = test system: NCI-H522 lung
T-47D breast = test system: T-47D breast
A498 renal = test system: A498 renal
HOP-92 NSCLC = test system: HOP-92 NSCLC
SK-OV-3 ovarian = test system: SK-OV-3 ovarian
SF-268 CNS = test system: SF-268 CNS
MCF7 breast = test system: MCF7 breast
COLO 205 colon = test system: COLO 205 colon
MDA-N = test system: MDA-N
OVCAR-8 ovarian = test system: OVCAR-8 ovarian
IGROV1 ovarian = test system: IGROV1 ovarian
UACC-257 melanoma = test system: UACC-257 melanoma
SK-MEL-5 melanoma = test system: SK-MEL-5 melanoma
NCI/ADR-RES ovarian = test system: NCI/ADR-RES ovarian
HCT-116 colon = test system: HCT-116 colon
TK-10 renal = test system: TK-10 renal
EKVX NSCLC = test system: EKVX NSCLC
CAKI-1 renal = test system: CAKI-1 renal
HT29 colon = test system: HT29 colon
UO-31 renal = test system: UO-31 renal

Compound: O=C1c2ccc3cc(CCl)cc(O)c3c2C(=O)c2cccc(O)c21
- TGI (M14 melanoma): 2.45 µM
- TGI (HCC-2998 colon): > 10 µM
- TGI (SNB-19 CNS): > 10 µM
- TGI (MALME-3M melanoma): 0.0669 µM
- TGI (SK-MEL-2 melanoma): > 10 µM
- TGI (SW-620 colon): 1 µM
- TGI (PC-3 prostate): > 10 µM
- TGI (HS 578T breast): > 10 µM
- TGI (MDA-MB-435): 0.324 µM
- TGI (A549 NSCLC): > 10 µM
- TGI (SF-295 CNS): > 10 µM
- TGI (SN12C renal): 7.26 µM
- TGI (OVCAR-3 ovarian): 0.407 µM
- TGI (RXF 393 renal): 9.83 µM
- TGI (OVCAR-4 ovarian): > 10 µM
- TGI (BT-549 breast): > 10 µM
- TGI (NCI-H460 lung): > 10 µM
- TGI (NCI-H23 lung): > 10 µM
- TGI (ACHN renal): 7.4 µM
- TGI (U251 CNS): > 10 µM
- TGI (HL-60(TB) leukemia): 1.61 µM
- TGI (RPMI-8226 leukemia): > 10 µM
- TGI (LOX IMVI melanoma): > 10 µM
- TGI (K-562 leukemia): > 10 µM
- TGI (786-0 renal): > 10 µM
- TGI (CCRF-CEM leukemia): 5.16 µM
- TGI (SF-539 CNS): 6.42 µM
- TGI (MDA-MB-231 breast): 3.16 µM
- TGI (UACC-62 melanoma): 3.85 µM
- TGI (DU-145 prostate): > 10 µM
- TGI (HCT-15 colon): > 10 µM
- TGI (MOLT-4 leukemia): 6.75 µM
- TGI (HOP-62 NSCLC): > 10 µM
- TGI (SK-MEL-28 melanoma): 8.27 µM
- TGI (SR leukemia): > 10 µM
- TGI (NCI-H226 lung): > 10 µM
- TGI (OVCAR-5 ovarian): > 10 µM
- TGI (KM12 colon): > 10 µM
- TGI (NCI-H522 lung): > 10 µM
- TGI (T-47D breast): > 10 µM
- TGI (A498 renal): > 10 µM
- TGI (HOP-92 NSCLC): > 10 µM
- TGI (SK-OV-3 ovarian): > 10 µM
- TGI (SF-268 CNS): 9.18 µM
- TGI (MCF7 breast): 2.72 µM
- TGI (COLO 205 colon): 4.11 µM
- TGI (MDA-N): 0.314 µM
- TGI (OVCAR-8 ovarian): 5.03 µM
- TGI (IGROV1 ovarian): > 10 µM
- TGI (UACC-257 melanoma): 3.04 µM
- TGI (SK-MEL-5 melanoma): 1.98 µM
- TGI (NCI/ADR-RES ovarian): 5.67 µM
- TGI (HCT-116 colon): 4.18 µM
- TGI (TK-10 renal): > 10 µM
- TGI (EKVX NSCLC): > 10 µM
- TGI (CAKI-1 renal): > 10 µM

Compound: COC(=O)[C@]12CC[C@H]3CN(C(=O)OCc4ccccc4)[C@H]([C@H]31)[C@H](C(=O)OCC[Si](C)(C)C)N2S(=O)(=O)c1ccc(C)cc1
- TGI (M14 melanoma): > 100 µM
- TGI (HCC-2998 colon): > 100 µM
- TGI (SNB-19 CNS): > 100 µM
- TGI (MALME-3M melanoma): > 100 µM
- TGI (SK-MEL-2 melanoma): > 100 µM
- TGI (SW-620 colon): > 100 µM
- TGI (PC-3 prostate): > 100 µM
- TGI (HS 578T breast): > 100 µM
- TGI (HT29 colon): > 100 µM
- TGI (MDA-MB-435): > 100 µM
- TGI (A549 NSCLC): > 100 µM
- TGI (SF-295 CNS): > 100 µM
- TGI (UO-31 renal): > 100 µM
- TGI (SN12C renal): > 100 µM
- TGI (OVCAR-3 ovarian): > 100 µM
- TGI (RXF 393 renal): > 100 µM
- TGI (OVCAR-4 ovarian): > 100 µM
- TGI (BT-549 breast): > 100 µM
- TGI (NCI-H460 lung): > 100 µM
- TGI (NCI-H23 lung): > 100 µM
- TGI (ACHN renal): > 100 µM
- TGI (U251 CNS): > 100 µM
- TGI (HL-60(TB) leukemia): > 100 µM
- TGI (RPMI-8226 leukemia): > 100 µM
- TGI (LOX IMVI melanoma): > 100 µM
- TGI (K-562 leukemia): > 100 µM
- TGI (786-0 renal): > 100 µM
- TGI (CCRF-CEM leukemia): > 100 µM
- TGI (SF-539 CNS): > 100 µM
- TGI (MDA-MB-231 breast): > 100 µM
- TGI (UACC-62 melanoma): > 100 µM
- TGI (DU-145 prostate): > 100 µM
- TGI (HCT-15 colon): > 100 µM
- TGI (MOLT-4 leukemia): > 100 µM
- TGI (HOP-62 NSCLC): > 100 µM
- TGI (SK-MEL-28 melanoma): > 100 µM
- TGI (SR leukemia): > 100 µM
- TGI (NCI-H226 lung): > 100 µM
- TGI (OVCAR-5 ovarian): > 100 µM
- TGI (KM12 colon): > 100 µM
- TGI (NCI-H522 lung): > 100 µM
- TGI (T-47D breast): > 100 µM
- TGI (A498 renal): > 100 µM
- TGI (HOP-92 NSCLC): 9.68 µM
- TGI (SK-OV-3 ovarian): > 100 µM
- TGI (SF-268 CNS): > 100 µM
- TGI (MCF7 breast): > 100 µM
- TGI (COLO 205 colon): > 100 µM
- TGI (MDA-N): > 100 µM
- TGI (OVCAR-8 ovarian): > 100 µM
- TGI (IGROV1 ovarian): > 100 µM
- TGI (UACC-257 melanoma): > 100 µM
- TGI (SK-MEL-5 melanoma): > 100 µM
- TGI (NCI/ADR-RES ovarian): > 100 µM
- TGI (HCT-116 colon): > 100 µM
- TGI (TK-10 renal): > 100 µM
- TGI (EKVX NSCLC): > 100 µM
- TGI (CAKI-1 renal): > 100 µM
